According to PubChem BioAssay (NCI):
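Results reflect a 48-hour exposure of cells in 96-well plates to compound at five concentrations. TGI denotes the concentration required for complete inhibition of growth.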

Assays:
Assay in all cases: NCI tumour cell line growth inhibition, 48 h
SNB-75 CNS = tested on: SNB-75 CNS
HCC-2998 colon = tested on: HCC-2998 colon
UACC-257 melanoma = tested on: UACC-257 melanoma
UO-31 renal = tested on: UO-31 renal
786-0 renal = tested on: 786-0 renal
SW-620 colon = tested on: SW-620 colon
MALME-3M melanoma = tested on: MALME-3M melanoma
NCI-H522 lung = tested on: NCI-H522 lung
HCT-15 colon = tested on: HCT-15 colon
LOX IMVI melanoma = tested on: LOX IMVI melanoma
NCI-H460 lung = tested on: NCI-H460 lung
MCF7 breast = tested on: MCF7 breast
M14 melanoma = tested on: M14 melanoma
PC-3 prostate = tested on: PC-3 prostate
EKVX NSCLC = tested on: EKVX NSCLC
SK-MEL-5 melanoma = tested on: SK-MEL-5 melanoma
SN12C renal = tested on: SN12C renal
RPMI-8226 leukemia = tested on: RPMI-8226 leukemia
ACHN renal = tested on: ACHN renal
K-562 leukemia = tested on: K-562 leukemia
U251 CNS = tested on: U251 CNS
HOP-92 NSCLC = tested on: HOP-92 NSCLC
A549 NSCLC = tested on: A549 NSCLC
CAKI-1 renal = tested on: CAKI-1 renal
SK-MEL-2 melanoma = tested on: SK-MEL-2 melanoma
UACC-62 melanoma = tested on: UACC-62 melanoma
DU-145 prostate = tested on: DU-145 prostate
RXF 393 renal = tested on: RXF 393 renal
MDA-MB-231 breast = tested on: MDA-MB-231 breast
SK-MEL-28 melanoma = tested on: SK-MEL-28 melanoma
TK-10 renal = tested on: TK-10 renal
KM12 colon = tested on: KM12 colon
OVCAR-5 ovarian = tested on: OVCAR-5 ovarian
HL-60(TB) leukemia = tested on: HL-60(TB) leukemia
SF-539 CNS = tested on: SF-539 CNS
OVCAR-4 ovarian = tested on: OVCAR-4 ovarian
MOLT-4 leukemia = tested on: MOLT-4 leukemia
NCI/ADR-RES ovarian = tested on: NCI/ADR-RES ovarian
T-47D breast = tested on: T-47D breast
OVCAR-3 ovarian = tested on: OVCAR-3 ovarian
HCT-116 colon = tested on: HCT-116 colon
NCI-H226 lung = tested on: NCI-H226 lung
BT-549 breast = tested on: BT-549 breast
CCRF-CEM leukemia = tested on: CCRF-CEM leukemia
SR leukemia = tested on: SR leukemia
SF-295 CNS = tested on: SF-295 CNS
HS 578T breast = tested on: HS 578T breast
OVCAR-8 ovarian = tested on: OVCAR-8 ovarian
A498 renal = tested on: A498 renal
IGROV1 ovarian = tested on: IGROV1 ovarian
MDA-MB-435 = tested on: MDA-MB-435
SF-268 CNS = tested on: SF-268 CNS
SNB-19 CNS = tested on: SNB-19 CNS
COLO 205 colon = tested on: COLO 205 colon
NCI-H23 lung = tested on: NCI-H23 lung
SK-OV-3 ovarian = tested on: SK-OV-3 ovarian
HT29 colon = tested on: HT29 colon
HOP-62 NSCLC = tested on: HOP-62 NSCLC

`N#Cc1c(N)c2c(c(-c3ccccc3)c1-c1ccccc1)C(=O)N(NC(=S)Nc1ccccc1)C2=O` was tested, and the TGI (SNB-75 CNS) was greater than 100 µM, the TGI (HCC-2998 colon) was greater than 100 µM and the TGI (UACC-257 melanoma) was greater than 100 µM. It also gave a TGI (UO-31 renal) greater than 100 µM, a TGI (786-0 renal) greater than 100 µM and a TGI (SW-620 colon) greater than 100 µM. It also gave a TGI (MALME-3M melanoma) greater than 100 µM, a TGI (NCI-H522 lung) greater than 100 µM and a TGI (HCT-15 colon) greater than 100 µM. The TGI (LOX IMVI melanoma) was greater than 100 µM, the TGI (NCI-H460 lung) was greater than 100 µM and the TGI (MCF7 breast) was greater than 100 µM. The TGI (M14 melanoma) was greater than 100 µM, the TGI (PC-3 prostate) was greater than 100 µM and the TGI (EKVX NSCLC) was greater than 100 µM. The TGI (SK-MEL-5 melanoma) was greater than 100 µM, the TGI (SN12C renal) was greater than 100 µM and the TGI (RPMI-8226 leukemia) was greater than 100 µM. The TGI (ACHN renal) was greater than 100 µM, the TGI (K-562 leukemia) was greater than 100 µM and the TGI (U251 CNS) was greater than 100 µM. The TGI (HOP-92 NSCLC) was greater than 100 µM, the TGI (A549 NSCLC) was greater than 100 µM and the TGI (CAKI-1 renal) was greater than 100 µM. For the same compound, the TGI (SK-MEL-2 melanoma) was greater than 100 µM, the TGI (UACC-62 melanoma) was greater than 100 µM and the TGI (DU-145 prostate) was greater than 100 µM. It also gave a TGI (RXF 393 renal) of 93.8 µM, a TGI (MDA-MB-231 breast) greater than 100 µM and a TGI (SK-MEL-28 melanoma) greater than 100 µM. It also gave a TGI (TK-10 renal) greater than 100 µM, a TGI (KM12 colon) greater than 100 µM and a TGI (OVCAR-5 ovarian) greater than 100 µM. It also gave a TGI (HL-60(TB) leukemia) greater than 100 µM, a TGI (SF-539 CNS) greater than 100 µM and a TGI (OVCAR-4 ovarian) greater than 100 µM. It also gave a TGI (MOLT-4 leukemia) greater than 100 µM, a TGI (NCI/ADR-RES ovarian) greater than 100 µM and a TGI (T-47D breast) greater than 100 µM. It also gave a TGI (OVCAR-3 ovarian) greater than 100 µM, a TGI (HCT-116 colon) greater than 100 µM and a TGI (NCI-H226 lung) greater than 100 µM. It also gave a TGI (BT-549 breast) greater than 100 µM, a TGI (CCRF-CEM leukemia) greater than 100 µM and a TGI (SR leukemia) greater than 100 µM. It also gave a TGI (SF-295 CNS) greater than 100 µM, a TGI (HS 578T breast) greater than 100 µM and a TGI (OVCAR-8 ovarian) greater than 100 µM. The TGI (A498 renal) was greater than 100 µM, the TGI (IGROV1 ovarian) was greater than 100 µM and the TGI (MDA-MB-435) was greater than 100 µM. For the same compound, the TGI (SF-268 CNS) was greater than 100 µM, the TGI (SNB-19 CNS) was greater than 100 µM and the TGI (COLO 205 colon) was greater than 100 µM.

Work on `Cc1ccccc1N1C(N)=C(C#N)C(C#N)(C#N)C1c1ccccc1` (stereo not given) yielded a TGI (SNB-75 CNS) of 46 µM, a TGI (HCC-2998 colon) of 32.4 µM and a TGI (UACC-257 melanoma) of 32 µM. The TGI (NCI-H23 lung) was 38.6 µM, the TGI (UO-31 renal) was 31.2 µM and the TGI (786-0 renal) was 32.3 µM. For the same compound, the TGI (SW-620 colon) was 31.7 µM, the TGI (MALME-3M melanoma) was 32.6 µM and the TGI (NCI-H522 lung) was 32.1 µM. It also gave a TGI (HCT-15 colon) of 35.9 µM, a TGI (SK-OV-3 ovarian) of 86.6 µM and a TGI (LOX IMVI melanoma) of 32.7 µM. For the same compound, the TGI (MCF7 breast) was 42.6 µM, the TGI (M14 melanoma) was 45 µM and the TGI (PC-3 prostate) was 51 µM. For the same compound, the TGI (EKVX NSCLC) was 42.8 µM, the TGI (SK-MEL-5 melanoma) was 30.1 µM and the TGI (SN12C renal) was 59 µM. The TGI (RPMI-8226 leukemia) was 45.2 µM, the TGI (ACHN renal) was 35.1 µM and the TGI (U251 CNS) was 31.9 µM. It also gave a TGI (HOP-92 NSCLC) of 35.9 µM, a TGI (A549 NSCLC) of 62.7 µM and a TGI (CAKI-1 renal) greater than 100 µM. The TGI (SK-MEL-2 melanoma) was 55.3 µM, the TGI (HT29 colon) was 34.2 µM and the TGI (UACC-62 melanoma) was 37.7 µM. It also gave a TGI (DU-145 prostate) of 30.8 µM, a TGI (RXF 393 renal) of 33.9 µM and a TGI (MDA-MB-231 breast) of 30.8 µM. The TGI (SK-MEL-28 melanoma) was 36.5 µM, the TGI (TK-10 renal) was 28.4 µM and the TGI (KM12 colon) was 32.6 µM. It also gave a TGI (OVCAR-5 ovarian) of 41.5 µM, a TGI (HL-60(TB) leukemia) of 44.2 µM and a TGI (SF-539 CNS) of 37.9 µM. For the same compound, the TGI (HOP-62 NSCLC) was 42.5 µM, the TGI (OVCAR-4 ovarian) was 40.9 µM and the TGI (MOLT-4 leukemia) was 39.3 µM. It also gave a TGI (NCI/ADR-RES ovarian) of 42.2 µM, a TGI (T-47D breast) of 31 µM and a TGI (OVCAR-3 ovarian) of 35.6 µM. The TGI (HCT-116 colon) was 33.6 µM, the TGI (NCI-H226 lung) was 38.8 µM and the TGI (BT-549 breast) was 28.8 µM. The TGI (CCRF-CEM leukemia) was 36.7 µM, the TGI (SR leukemia) was 60.4 µM and the TGI (SF-295 CNS) was 68.9 µM. For the same compound, the TGI (HS 578T breast) was 58 µM, the TGI (OVCAR-8 ovarian) was 38.4 µM and the TGI (A498 renal) was 33.7 µM. It also gave a TGI (IGROV1 ovarian) of 33.9 µM, a TGI (MDA-MB-435) of 35.4 µM and a TGI (SF-268 CNS) of 45.7 µM. The TGI (SNB-19 CNS) was 41.2 µM and the TGI (COLO 205 colon) was 33.4 µM.
